One compound from patent publication US10266482B2, “Long-term memory inducing agent” (NATIONAL UNIVERSITY CORPORATION TOKYO MEDICAL AND DENTAL …, priority 2017, dated 2019) can be followed below.

Test [1] deals with young crickets. The test can be described thus: Olfactory associative learning test in young crickets (single-time training, memory a day after). The class given is in vivo, Gryllus bimaculatus. The method, then: Male crickets about one week old (young) or three week old (aged) following molting into adult forms were used. Each of the crickets was placed into a 100 ml beaker three days before the experiment, and deprived of water for 2-3 days to enhance the desire of taking water. As the feed, about 10 pieces of insect feed were placed into the beaker.
A 1-ml syringe was used for smell and reward associative conditioning upon learning/training. The syringe contained water as the reward while a piece of paper (3 mm×3 mm) perfumed with peppermint essence was pierced into the needle to about 1 cm from the tip thereof. In this learning/training, the filter paper on the needle was brought near the antennae of the cricket to allow it to smell for 3 seconds and then a drop of water was put out from the tip of the needle and applied to the mouth of the cricket. When the associative conditioning was conducted for four times, the conditionings were conducted at intervals of 5 minutes.
Smell preference was examined by placing each cricket into a test arena. The arena consisted of a “standby chamber” and a “test chamber”. The floor of the “test chamber” had two holes each with a diameter of 4 cm which were communicated with two smell sources. The smell source was a plastic pot containing filter paper perfumed with essence of a smell (peppermint or vanilla) and covered with a gauze lid. In the preference test, each cricket was placed into the test chamber and allowed to walk freely for 4 minutes to search for the two smell sources. Two minutes after the start of the test, a rotary board having the smell sources was rotated to reverse the positions of the vanilla and the peppermint smells. During the test, the time the cricket spent placing its mouth to the gauze of the smell source was measured as a visiting time to the smell source, and the ratio of the visiting times of the two types of smells (PI value: preference index) was calculated according to the following formula to assess the relative preference to the mint smell. PI value=Tp/(Tp+Tv)×100 • Tp: Searching time for smell associated with the reward (peppermint) • Tv: Searching time for smell not associated with the reward (vanilla)
If the preferences for the two smells are equivalent, PI will be 50. Since crickets inherently prefer vanilla smell over peppermint smell, an average PI value prior to the learning/training is usually 25-35, The preference test was conducted before and after the learning/training to examine whether preference for the smell changes due to the learning/training.
As drugs, melatonin, N(1)-acetyl-N(2)-formyl-5-methoxykynuramine (AFMK), N(1)-acetyl-5-methoxykynuramine (AMK), 6-Hydroxymelatonin (6-HM), L-kynurenine, kynuramine, 8-Bromoguanoine 3′,5′-cyclic monophosphate sodium salt (8 br-cGMP) and cycloheximide (CHX) were used. Melatonin, 6-HM, kynurenine, kynuramine and 8br-cGMP were purchased from SIGMA Aldrich, AFMK was purchased from Cayman Chemical, AMK was purchased from Toronto Research Chemicals and CHX was purchased from Wako Pure Chemical Industries. The drugs other than 8br-cGMP and CHX were first dissolved in ethanol and then diluted with physiological saline for crickets to the respective concentrations. In the administration experiment, 3 μl was administered using a 10-μl syringe to the brain via an aperture opened through a simple eye of the head.
PI values were tested before the training and a day after the training in the same group by a Wilcoxon's-test.

The next test deals with aged crickets. The test is described as follows: Olfactory associative learning test in aged crickets (age-related memory disorder, training four times). Particulars: 5 μM, 3 μl. Format: in vivo, Gryllus bimaculatus. The method, then:
Male crickets about one week old (young) or three week old (aged) following molting into adult forms were used. Each of the crickets was placed into a 100 ml beaker three days before the experiment, and deprived of water for 2-3 days to enhance the desire of taking water. As the feed, about 10 pieces of insect feed were placed into the beaker. A 1-ml syringe was used for smell and reward associative conditioning upon learning/training. The syringe contained water as the reward while a piece of paper (3 mm×3 mm) perfumed with peppermint essence was pierced into the needle to about 1 cm from the tip thereof. In this learning/training, the filter paper on the needle was brought near the antennae of the cricket to allow it to smell for 3 seconds and then a drop of water was put out from the tip of the needle and applied to the mouth of the cricket. When the associative conditioning was conducted for four times, the conditionings were conducted at intervals of 5 minutes. Smell preference was examined by placing each cricket into a test arena. The arena consisted of a “standby chamber” and a “test chamber”. […] The smell source was a plastic pot containing filter paper perfumed with essence of a smell (peppermint or vanilla) and covered with a gauze lid. In the preference test, each cricket was placed into the test chamber and allowed to walk freely for 4 minutes to search for the two smell sources. Two minutes after the start of the test, a rotary board having the smell sources was rotated to reverse the positions of the vanilla and the peppermint smells. During the test, the time the cricket spent placing its mouth to the gauze of the smell source was measured as a visiting time to the smell source, and the ratio of the visiting times of the two types of smells (PI value: preference index) was calculated according to the following formula to assess the relative preference to the mint smell. PI value=Tp/(Tp+Tv)×100 • Tp: Searching time for smell associated with the reward (peppermint) • Tv: Searching time for smell not associated with the reward (vanilla) If the preferences for the two smells are equivalent, PI will be 50. Since crickets inherently prefer vanilla smell over peppermint smell, an average PI value prior to the learning/training is usually 25-35, The preference test was conducted before and after the learning/training to examine whether preference for the smell changes due to the learning/training. […] Melatonin, 6-HM, kynurenine, kynuramine and 8br-cGMP were purchased from SIGMA Aldrich, AFMK was purchased from Cayman Chemical, AMK was purchased from Toronto Research Chemicals and CHX was purchased from Wako Pure Chemical Industries. The drugs other than 8br-cGMP and CHX were first dissolved in ethanol and then diluted with physiological saline for crickets to the respective concentrations. In the administration experiment, 3 μl was administered using a 10-μl syringe to the brain via an aperture opened through a simple eye of the head. PI values were tested before the training and a day after the training in the same group by a Wilcoxon's-test.

Test [2] deals with young crickets. The test is described as follows: Olfactory associative learning test in young crickets (single-time training, memory a day after). The class given is in vivo, Gryllus bimaculatus. Particulars: drinking 10 μl of aqueous solution (5 μM) 5 minutes after single-time training.
The test system of another test is young mice. The test can be described thus: Object recognition test for young mice (melatonin and melatonin metabolites). The class given is in vivo, ICR mice. Particulars: i.p. 60 minutes after one one-minute acquisition trial, test trial 24 hours later. The method, then: Two-month-old male ICR mice (young mice) were used. The rearing room was kept at 22° C. at cycles of 12 hours of light period/12 hours of dark period, and feed and drinking water were given freely. All of the experiments were conducted during the latter 6 hours of the light period.
Melatonin (MEL), N(1)-acetyl-N(2)-formyl-5-methoxykynuramine (AFMK), and N(1)-acetyl-5-methoxykynuramine (AMK) were used as drugs. Melatonin was purchased from SIGMA Aldrich, AFMK was purchased from Cayman Chemical, and AMK was purchased from Toronto Research Chemicals. AFMK and AMK were diluted with physiological saline and intraperitoneally administered at a dosage of 0.01 mg/kg bw, 0.1 mg/kg bw or 1.0 mg/kg bw. MEL was diluted with physiological saline containing 1 vol % ethanol, and intraperitoneally administered at a dosage of 1.0 mg/kg bw or 5.0 mg/kg bw. As controls, physiological saline or physiological saline containing 1 vol % ethanol was intraperitoneally administered.
Test was conducted in the same manner as “5.3 Object recognition test” in Example 5.
Processing was conducted in the same manner as “5.4 Statistical processing” in Example 5.

Consider `COc1ccc2[nH]cc(CCNC(C)=O)c2c1` [melatonin, reference compound], for which the “long-term memory formation a day after the training” value with young crickets [1] (0.2 μM, 3 μl to the brain, 20 minutes after single-time training) was “not”; in the test on young crickets [1] (1 μM, 3 μl to the brain, 20 minutes after single-time training), “not”; in the test with young crickets [1] (5 μM, 3 μl to the brain, 20 minutes after single-time training), “long-term memories were formed”; with young crickets [1] (5 μM, 3 μl, administered between 20 minutes before and 20 minutes after single-time training), “long-term memory was formed”; in the test on young crickets [1] (25 μM, 3 μl to the brain, 20 minutes after single-time training), “formed”. For the same compound, the “PI value for mint a day after the training versus PI value before the training” value with young crickets [1] (5 μM to the brain 20 minutes before single-time training) was “significantly higher”; in the test with young crickets [1] (melatonin 5 μM simultaneously with cycloheximide (10 mM), to the brain 20 minutes before single-time training) it was “no significant difference”. For the same compound, the “administration concentration sufficient to form long-term memory” value in the test on young crickets [1] (3 μl to the brain 20 minutes after single-time training) turned out to be 5 µM. For the same compound, the “amount in 1 g of the food per kg of body weight” value with young crickets [1] (based on the result from ingesting 5 μM for 10 μl) was at least 11.6 µg. Besides, in the test with aged crickets (20 minutes after training for four times), the “improvement in an age-related memory disorder” value is “improvement in an age-related memory disorder was observed”. Also, the “long-term memory formation a day after the training (improvement of age-related memory disorder)” value with aged crickets (20 minutes before training for four times) is “a long-term memory was formed”. Besides, in the test on young crickets [2], the “long-term memory formation a day after the training by oral administration” value is “long-term memory was formed”. For the same compound, the “concentration at which the effect of inducing long-term memories was found” value in the test on young mice is given as 5.0 mg/kg bw.
